The text below walks through data of patent US20130217702A1 (Richter Gedeon Nyrt., priority 2010, published 2013).

A value given as a limit tells only on which side of the number the result lay.

The target in experiment [1] is T1, recombinant human B1 receptors (Homo sapiens, UniProt P46663).
T1 construct: host or cells: CHO (CHO-B1)
T1 sequence (P46663 1-353): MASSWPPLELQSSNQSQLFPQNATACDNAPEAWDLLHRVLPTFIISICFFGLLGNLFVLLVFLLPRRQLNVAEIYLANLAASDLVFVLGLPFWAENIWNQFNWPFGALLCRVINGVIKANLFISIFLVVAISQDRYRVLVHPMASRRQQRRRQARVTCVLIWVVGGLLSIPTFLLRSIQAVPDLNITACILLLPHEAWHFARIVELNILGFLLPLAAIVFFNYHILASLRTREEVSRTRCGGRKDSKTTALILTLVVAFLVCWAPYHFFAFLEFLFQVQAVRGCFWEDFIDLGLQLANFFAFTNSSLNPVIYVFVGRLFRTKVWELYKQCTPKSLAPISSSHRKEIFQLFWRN
In words: Functional assay: antagonist potency by cytosolic calcium measurement (plate reader fluorimeter) in CHO-B1 cells, agonist LysDABK. Type of experiment: cell-based. Conditions: CHO-B1 cells, inhibition of LysDABK (EC80)-evoked [Ca2+]i elevation; read-out: B1 func. Put shortly: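 IC50 is the concentration giving half-maximal inhibition of the LysDABK (EC80) calcium response, fitted from at least three experiments. CHO cells stably expressing human B1 were dye-loaded, exposed to compound for 20-25 min, then read by fluo-4 fluorescence (ΔF/F) at 37 °C.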

Experiment [2] concerns the target T2, human recombinant bradykinin B1 receptor (Homo sapiens, UniProt P46663).
T2 construct: host or cells: CHO cells, clone hB1-A5
T2 sequence (P46663 1-353): T1 sequence (P46663 1-353)
In words: Human recombinant bradykinin B1 receptor competitive radioligand binding. Conditions: hB1 expressed in CHO cells, [3H]-[Des-Arg10] Kallidin radioligand; read-out: B1 binding. In outline: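 Competition radioligand binding on CHO-expressed hB1 membranes, using [3,4-prolyl-3,4-^3H(N)]-[Des-Arg^10] Kallidin as tracer, 15 min at 25° C. Excess Lys-des-Arg^9-Bradykinin (10 μM) set nonspecific binding. Sigmoidal fits of at least seven concentrations gave IC50, converted to Ki via Cheng-Prusoff; KD from Scatchard.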

`COc1cc(C(=O)NC2(C(=O)NCc3ccc(-n4c(-c5nc(C)no5)c(Cl)c5ccccc54)cn3)CC2)on1` [Example 58, 3-Methoxy-isoxazole-5-carboxylic acid [1-({5-[3-chloro-2-(3-methyl-[1,2,4]oxadiazol-5-yl)-indol-1-yl]-pyridin-2-ylmethyl}-carbamoyl)-cyclopropyl]-amide]: in experiment [1], the IC50 was under 20 nM. Besides, the Ki in experiment [2] is under 20 nM.
Regarding `COc1ccc2c(c1)cc(-c1nnc(C)o1)n2-c1ccc(CNC(=O)C2(NC(=O)CC(F)(F)F)CC2)cc1` [Example 124, 1-(3,3,3-Trifluoro-propionylamino)-cyclopropanecarboxylic acid 4-[5-methoxy-2-(5-methyl-[1,3,4]oxadiazol-2-yl)-indol-1-yl]-benzylamide], the IC50 in experiment [1] is 20 to 100 nM. In addition, the Ki in experiment [2] lay in the range of 20 to 100 nM.
On to `Cc1nc(-c2cc3cc(F)ccc3n2-c2ccc(CNC(=O)C3(NC(=O)c4cccnc4F)CC3)cc2)no1` [Example 120, 2-Fluoro-N-(1-{4-[5-fluoro-2-(5-methyl-[1,2,4]oxadiazol-3-yl)-indol-1-yl]-benzylcarbamoyl}-cyclopropyl)-nicotinamide], for which the IC50 in experiment [1] is under 20 nM. In experiment [2], the Ki was under 20 nM.
`NC(=O)c1c(Cl)c2ccccc2n1-c1ccc(CNC(=O)C2(NC(=O)C(F)(F)F)CC2)cc1` [Example 187, 3-Chloro-1-[4-({[1-(2,2,2-trifluoro-acetylamino)-cyclopropanecarbonyl]-amino}-methyl)-phenyl]-1H-indole-2-carboxylic acid amide]: in experiment [1], the IC50 lay within 20 to 100 nM. For the same compound, the Ki in experiment [2] fell in the range of 100 to 500 nM.
Turning to `COc1cc(C(=O)NC2(C(=O)NCc3ccc(-n4c(-c5nnn(C)n5)cc5ccccc54)cc3)CC2)on1` [Example 3, 3-Methoxy-isoxazole-5-carboxylic acid (1-{4-[2-(2-methyl-2H-tetrazol-5-yl)-indol-1-yl]-benzylcarbamoyl}-cyclopropyl)-amide], the IC50 in experiment [1] is under 20 nM. In addition, the Ki in experiment [2] was under 20 nM.
As to `Cc1nc(-c2c(Cl)c3ccccc3n2-c2ccc(CNC(=O)C3(NC(=O)c4conc4C)CC3)cc2)no1` [Example 181, 3-Methyl-isoxazole-4-carboxylic acid (1-{4-[3-chloro-2-(5-methyl-[1,2,4]oxadiazol-3-yl)-indol-1-yl]-benzylcarbamoyl}-cyclopropyl)-amide], in experiment [1], the IC50 is under 20 nM. Also, the Ki in experiment [2] is under 20 nM.
Turning to `COC(=O)c1c(Cl)c2ccccc2n1-c1ccc(CNC(=O)C2(NC(=O)c3cc(OC)no3)CC2)c(F)c1` [Example 55, 3-Chloro-1-{3-fluoro-4-[({1-[(3-methoxy-isoxazole-5-carbonyl)-amino]-cyclo-propanecarbonyl}-amino)-methyl]-phenyl}-1H-indole-2-carboxylic acid methyl ester], in experiment [1], the IC50 was under 20 nM. Moreover, the Ki in experiment [2] was under 20 nM.
Regarding `Cn1nnnc1-c1c(Cl)c2ccccc2n1-c1ccc(CNC(=O)C2(NC(=O)C(F)(F)F)CC2)cc1` [Example 8, 1-(2,2,2-Trifluoro-acetylamino)-cyclopropanecarboxylic acid 4-[3-chloro-2-(1-methyl-1H-tetrazol-5-yl)-indol-1-yl]-benzylamide], the IC50 in experiment [1] is under 20 nM. For the same compound, the Ki in experiment [2] is under 20 nM.
Regarding `COc1cc(C(=O)NC2(C(=O)NCc3ccc(-n4c(-c5noc(C)n5)cc5cc(F)ccc54)cc3F)CC2)on1` [Example 133, 3-Methoxy-isoxazole-5-carboxylic acid (1-{2-fluoro-4-[5-fluoro-2-(5-methyl-[1,2,4]oxadiazol-3-yl)-indol-1-yl]-benzylcarbamoyl}-cyclopropyl)-amide], the IC50 in experiment [1] was under 20 nM. Further, the Ki in experiment [2] is under 20 nM.
As to `Cc1nc(-c2c(Cl)c3ccccc3n2-c2ccc(CNC(=O)C3(NC(=O)c4csnn4)CC3)cc2)no1` [Example 174, [1,2,3]Thiadiazole-4-carboxylic acid (1-{4-[3-chloro-2-(5-methyl-[1,2,4]oxadiazol-3-yl)-indol-1-yl]-benzylcarbamoyl}-cyclopropyl)-amide], the IC50 in experiment [1] is under 20 nM. The Ki in experiment [2] is under 20 nM.
